# Assay results as given in patent US7732468B2, “3-aryl-6-aryl-[ 1,2,4]triazolo[3,4-b][1,3,4]thiadiazoles and related compounds as activators of caspases and inducers of apoptosis and the use thereof” (Cytovia, Inc., priority 2006, dated 2010).
# How the values were obtained:
# Assay type in all cases: cell-based
# [1] = system: Human breast cancer cell lines T-47D; assay: Caspase cascade activation (Ac-DEVD-R110 fluorogenic substrate) in T-47D cells; conditions: T47D cells, 48 h incubation, read-out: caspase potency EC50 T47D
# Procedure: (§1) Human breast cancer cell lines T-47D, human hepatocellular carcinoma cell line SNU398, human colon carcinoma cell line HCT116, human cancer cell line H11299, human Burkitt's lymphoma cell line Namalwa, human lymphoma cell line Raji, and human B cell lymphoblastoid cell line Ramos were grown according to media component mixtures designated by American Type Culture Collection+10% FCS (Invitrogen Corporation), in a 5% CO2-95% humidity incubator at 37° C. T-47D and H1299 cells were maintained at a cell density between 50 and 80% confluency at a cell density of 0.1 to 0.6×10^6 cells/mL. Cells were harvested at 600×g and resuspended at 0.65×10^6 cells/mL into appropriate media+10% FCS. An aliquot of 22.5 μL of cells was added to a well of a 384-well microtiter plate containing 2.5 μL of a 10% DMSO in RPMI-1640 media solution containing 0.16 to 100 μM of 6-(3,4-dimethoxyphenyl)-3-(2-methoxyphenyl)-[1,2,4]triazolo[3,4-b][1,3,4]thiadiazole or other test compound (0.016 to 10 μM final). An aliquot of 22.5 μL of cells was added to a well of a 384-well microtiter plate containing 2.5 μL of a 10% DMSO in RPMI-1640 media solution without test compound as the control sample. The samples were mixed by agitation and then incubated at 37° C. for 48 h in a 5% CO2-95% humidity incubator. After incubation, the samples were removed from the incubator and 25 μL of a solution containing 14 μM of N-(Ac-DEVD)-N′-ethoxycarbonyl-R110 (SEQ ID No.:1) fluorogenic substrate (Cytovia, Inc.; WO99/18856), 20% sucrose (Sigma), 20 mM DTT (Sigma), 200 mM NaCl (Sigma), 40 mM Na PIPES buffer pH 7.2 (Sigma), and 500 μg/mL lysolecithin (Calbiochem) was added. The samples were mixed by agitation and incubated at room temperature. Using a fluorescent plate reader (Model SPECTRAfluor Plus, Tecan), an initial reading (T=0) was made approximately 1-2 min after addition of the substrate solution, employing excitation at 485 nm and emission at 530 nm, to determine the background fluorescence of the control sample. After the 3 h incubation, the samples were read for fluorescence as above (T=3 h).
# (§2) The Relative Fluorescence Unit values (RFU) were used to calculate the sample readings as follows: RFU(T=3h)−Control RFU(T=0)=Net RFU(T=3h)
# (§3) The activity of caspase cascade activation was determined by the ratio of the net RFU value for 6-(3,4-dimethoxyphenyl)-3-(2-methoxyphenyl)-[1,2,4]triazolo[3,4-b][1,3,4]thiadiazole (Example I) or other test compound to that of control samples. The EC50 (nM) was determined by a sigmoidal dose-response calculation (Prism 3.0, GraphPad Software Inc.).
# [2] = system: human colon carcinoma cell line HCT116; assay: Caspase cascade activation in HCT116 cells; conditions: HCT-116, 48 h incubation, read-out: caspase potency EC50 HCT116
# Procedure: as §1, §2, §3
# [3] = system: human lymphoma cell line Raji; assay: Caspase cascade activation in Raji cells; conditions: RAJ1 cells, 48 h incubation, read-out: caspase potency EC50 RAJ1
# Procedure: as §1, §2, §3
# [4] = system: human B cell lymphoblastoid cell line Ramos; assay: Caspase cascade activation in Ramos cells; conditions: 48 h incubation, read-out: caspase potency EC50 RAMOS
# Procedure: as §1, §2, §3
# [5] = system: human hepatocellular carcinoma cell line SNU398; assay: Caspase cascade activation in SNU398 cells; conditions: SNU-398, 48 h incubation, read-out: caspase potency EC50 SNU398
# Procedure: as §1, §2, §3
# [6] = system: human Burkitt's lymphoma cell line Namalwa; assay: Caspase cascade activation in Namalwa cells; conditions: Burkitts lymphoma cell, 48 h incubation, read-out: caspase potency EC50 Namalwa
# Procedure: as §1, §2, §3
# [7] = system: human cancer cell line H1299; assay: Caspase cascade activation in H1299 cells; conditions: NCI-H1299, 48 h incubation, read-out: caspase potency EC50 H1299
# Procedure: as §1, §2, §3
# [8] = system: Human breast cancer cell lines T-47D; assay: Inhibition of cell proliferation (GI50, CellTiter-Glo) in T-47D cells; conditions: T47D cells, 48 h incubation
# Procedure: (§4) Human breast cancer cell lines T-47D, MX1 and MDAMB435, human colon carcinoma cell line HCT116, human leukemia cell line K562, human lymphoma cell line Raji, human B cell lymphoblastoid cell line Ramos, and human Burkitt's lymphoma cell line Namalwa were grown and harvested as in Example 14. An aliquot of […] of cells (4.4×10^4 cells/mL) was added to a well of a 96-well microtiter plate containing 5 μL of a 10% DMSO in RPMI-1640 media solution containing 10 nM to 100 μM of 6-(3,4-dimethoxyphenyl)-3-(2-methoxyphenyl)-[1,2,4]triazolo[3,4-b][1,3,4]thiadiazole (1 nM to 10 μM final). An aliquot of 45 μL of cells was added to a well of a 96-well microtiter plate containing 5 μL of a 10% DMSO in RPMI-1640 media solution without compound as the control sample for maximal cell proliferation (LMax). The samples were mixed by agitation and then incubated at 37° C. for 48 h in a 5% CO2-95% humidity incubator. After incubation, the samples were removed from the incubator and 25 μL of CellTiter-Glo™ reagent (Promega) was added. The samples were mixed by agitation and incubated at room temperature for 10-15 min. Plates were then read using a luminescent plate reader (Model SPECTRAfluor Plus, Tecan) to give Ltest values.
# (§5) The samples were mixed by agitation and then incubated at 37° C. for 0.5 h in a 5% CO2-95% humidity incubator. After incubation, the samples were removed from the incubator and 25 μL of CellTiter-Glo™ reagent (Promega) was added. The samples were mixed by agitation and incubated at […] 10-15 min at room temperature in a 5% CO2-95% humidity incubator. Fluorescence was read as above, (LStart) defining luminescence for initial cell number used as baseline in GI50 determinations.
# (§6) GI50 (dose for 50% inhibition of cell proliferation) is the concentration where [(LTest−LStart)/(LMax−LStart)]=0.5.
# [9] = system: Human breast cancer cell lines MX1; assay: Inhibition of cell proliferation (GI50) in MX1 cells; conditions: 48 h incubation
# Procedure: as §4, §5, §6
# [10] = system: human colon carcinoma cell line HCT116; assay: Inhibition of cell proliferation (GI50) in HCT116 cells; conditions: HCT 116 cells, 48 h incubation
# Procedure: as §4, §5, §6
# [11] = system: human Burkitt's lymphoma cell line Namalwa; assay: Inhibition of cell proliferation (GI50) in Namalwa cells; conditions: Burkitts lymphoma cell, 48 h incubation
# Procedure: as §4, §5, §6
# [12] = system: human lymphoma cell line Raji; assay: Inhibition of cell proliferation (GI50) in Raji cells; conditions: 48 h incubation
# Procedure: as §4, §5, §6
# [13] = system: human B cell lymphoblastoid cell line Ramos; assay: Inhibition of cell proliferation (GI50) in Ramos cells; conditions: 48 h incubation
# Procedure: as §4, §5, §6
# [14] = system: human leukemia cell line K562; assay: Inhibition of cell proliferation (GI50) in K562 cells; conditions: 48 h incubation
# Procedure: as §4, §5, §6
# [15] = system: Human breast cancer cell lines MDAMB435; assay: Inhibition of cell proliferation (GI50) in MDAMB435 cells; conditions: MDA MB 435 cells, 48 h incubation
# Procedure: as §4, §5, §6
Structure (SMILES),EC50 [1] [nM],EC50 [2] [nM],EC50 [3] [nM],EC50 [4] [nM],EC50 [5] [nM],EC50 [6] [nM],EC50 [7] [nM],GI50 [8] [nM],GI50 [9] [nM],GI50 [10] [nM],GI50 [11] [nM],GI50 [12] [nM],GI50 [13] [nM],GI50 [14] [nM],GI50 [15] [nM]
"CCOc1ccc(-c2nn3c(-c4ccccc4Cl)nnc3s2)cc1 [O, 3-(2-Chlorophenyl)-6-(4-ethoxyphenyl)-[1,2,4]triazolo[3,4-b][1,3,4]thiadiazole]",2430,> 10000,> 10000,> 10000,> 10000,> 10000,> 10000,–,–,–,–,–,–,–,–
"COc1ccc(-c2nn3c(-c4ccc(Cl)cc4Cl)nnc3s2)cc1OC [N, 3-(2,4-Dichlorophenyl)-6-(3,4-dimethoxyphenyl)-[1,2,4]triazolo[3,4-b][1,3,4]thiadiazole]",5020,> 10000,> 10000,5780,> 10000,5510,> 10000,–,–,–,–,–,–,–,–
"Clc1ccccc1-c1nnc2sc(-c3ccc4c(c3)OCO4)nn12 [L, 3-(2-Chlorophenyl)-6-(3,4-methylenedioxyphenyl)-[1,2,4]triazolo[3,4-b][1,3,4]thiadiazole]",2620,> 10000,> 10000,> 10000,> 10000,> 10000,> 10000,–,–,–,–,–,–,–,–
"COc1ccc(-c2nn3c(-c4ccccc4OC)nnc3s2)cc1N [Entry 7, 6-(3-Amino-4-methoxyphenyl)-3-(2-methoxyphenyl)-[1,2,4]triazolo[3,4-b][1,3,4]thiadiazole]",284,21,–,–,19,18,–,100,–,83,14,–,–,–,–
"COc1cccc(-c2nnc3sc(-c4ccc(N(C)C)cc4)nn23)c1 [Entry D1, 6-(4-Dimethylaminophenyl)-3-(3-methoxyphenyl)-1-[1,2,4]triazolo[3,4-b][1,3,4]thiadiazole]",1390,2270,1410,1250,1650,1290,–,–,–,6830,1130,2600,647,1020,–
"COc1cccc(-c2nn3c(-c4cc(OC)c(OC)c(OC)c4)nnc3s2)c1 [U, 6-(3-Methoxyphenyl)-3-(3,4,5-trimethoxyphenyl)-[1,2,4]triazolo[3,4-b][1,3,4]thiadiazole]",2740,> 10000,> 10000,> 10000,> 10000,> 10000,–,–,–,> 10000,> 10000,4640,2690,2770,–

# More lines, now with the values ahead:
EC50 [1] [nM],EC50 [2] [nM],EC50 [3] [nM],EC50 [4] [nM],EC50 [5] [nM],EC50 [6] [nM],EC50 [7] [nM],GI50 [8] [nM],GI50 [9] [nM],GI50 [10] [nM],GI50 [11] [nM],GI50 [12] [nM],GI50 [13] [nM],GI50 [14] [nM],GI50 [15] [nM],Structure (SMILES)
4030,4570,> 10000,566,1720,574,–,900,9000,–,–,–,–,–,–,"CCc1cc(-c2nnc3sc(-c4ccc(OC)cc4)nn23)n(C)n1 [C, 3-(3-Ethyl-1-methyl-1H-pyrazol-5-yl)-6-(4-methoxyphenyl)-[1,2,4]triazolo[3,4-b][1,3,4]thiadiazole]"
4480,> 10000,> 10000,> 10000,> 10000,> 10000,5050,–,–,–,–,–,–,–,–,"COc1ccc(-c2nn3c(-c4ccc(Cl)cc4)nnc3s2)cc1 [M, 3-(4-Chlorophenyl)-6-(4-methoxyphenyl)-[1,2,4]triazolo[3,4-b][1,3,4]thiadiazole]"
2370,5750,> 10000,5710,5550,> 10000,5140,–,–,> 10000,7690,9740,6420,3270,–,"CCOc1ccc(-c2nn3c(-c4ccccc4C)nnc3s2)cc1 [P, 6-(4-Ethoxyphenyl)-3-o-tolyl-[1,2,4]triazolo[3,4-b][1,3,4]thiadiazole]"
636,1020,617,585,–,580,–,167,–,497,138,–,–,–,–,"CCN(CC)c1ccc(-c2nn3c(-c4n[nH]c5c4CCC5)nnc3s2)cc1 [Entry K1, 6-(4-Diethylaminophenyl)-3-(1,4,5,6-tetrahydrocyclopenta[c]pyrazol-3-yl)-[1,2,4]triazolo[3,4-b][1,3,4]thiadiazole]"
121,40,–,–,33,18,–,22,–,107,21,–,–,–,–,"COc1ccccc1-c1nnc2sc(-c3ccc(C)c(N)c3)nn12 [Entry 5, 6-(3-Amino-4-methylphenyl)-3-(2-methoxyphenyl)-[1,2,4]triazolo[3,4-b][1,3,4]thiadiazole]"
395,67,81,40,34,39,–,200,–,89,16,–,–,–,–,"Cc1ccc(-c2nn3c(-c4n[nH]c5c4CCC5)nnc3s2)cc1 [Entry M1, 6-(4-Methylphenyl)-3-(1,4,5,6-tetrahydrocyclopenta[c]pyrazol-3-yl)-[1,2,4]triazolo[3,4-b][1,3,4]thiadiazole]"
3680,5450,> 10000,> 10000,1860,> 10000,3160,2730,4080,–,–,–,–,–,253,"CCc1cc(-c2nnc3sc(-c4ccc(C)cc4)nn23)n(C)n1 [A, 3-(3-Ethyl-1-methyl-1H-pyrazol-5-yl)-6-p-tolyl-[1,2,4]triazolo[3,4-b][1,3,4]thiadiazole]"
